Laboratory results taken from EP4663206A1, “NEXT-GENERATION ADC LINKER PLATFORM TECHNOLOGY AND POLYSACCHARIDE CROSS-LINKED COLLOIDAL PARTICLE-DRUG CONJUGATE” (Inventera Inc., priority 2023, dated 2024).

What was measured:
[1] = tested on: BT-474 human breast cancer xenograft model; assay: In vivo antitumor efficacy in cancer xenograft mouse model (intratumoral injection, tumor volume); parameters: species or system Balb/c nude mice; conditions: alone; Doxorubicin 2 mg/kg; TLRA1 agonist 6 nmol/mL (0.3 nmol)
Description: The antitumor efficacy of the drug was assessed by monitoring changes in tumor volume following administration. Cdex@TLRA1 and Cdex@TLRB1 were administered in a cancer xenograft mouse model to evaluate antitumor immune responses and subsequent tumor cell death.
Balb/c nude mice (6 weeks old) were used to establish a BT-474 human breast cancer xenograft model for in vivo efficacy evaluation. Approximately 1 × 10^6 BT-474 breast cancer cells were mixed with Matrigel at a 1:1 volume ratio and subcutaneously implanted into the dorsal flank of each mouse in a volume of approximately 100 µL.
Once tumor volumes reached approximately 50 mm^3, Cdex@TLRA1 and Cdex@TLRB1 were directly injected into the tumor masses, and tumor growth was monitored over a 2-week period to evaluate drug efficacy. The test substances were administered on days 0, 4, 7, 12, and 15 (see FIG. 18a). To enhance antitumor effects, doxorubicin was administered to all groups except the negative control group on days 1 and 9. A separate "doxorubicin only" group was included for comparative purposes (see FIG. 18b and Table 6).

cancer cells = conditions: cited from earlier work
[2] = stated in discussion, according to current reports; cited from earlier work
[3] = Phantom study, 3T MRI scanner (relaxivity)
Description: The measured r1 and r2 relaxivity values of NEMO-103 were 2.0 mM^-1s^-1 and 2.3 mM^-1s^-1, respectively (FIGS. 24d and 24e). The r2/r1 ratio, which is an important parameter for T1 MRI contrast agents, was calculated to be 1.15. […] For comparison, the measured r1 and r2 values of Dotarem® were 4.7 mM^-1s^-1 and 5.2 mM^-1s^-1, respectively, resulting in an r2/r1 ratio of 1.11.

[4] = Shoulder MR arthrography image quality assessment, clinical comparative study NEMO-103 vs GBCA; format: in vivo, humans; conditions: supine position, over time
Description: FIGS. 25 and 26 illustrate the phase design and image quality assessment method of a clinical comparative study between NEMO-103, a dextran-crosslinked T1 MRI contrast agent, and Dotarem®, a representative clinical gadolinium-based contrast agent (GBCA) for T1 MRI. Phase I refers to MR arthrography (MRA) images acquired within 30 minutes after contrast agent administration. Phase II refers to MRA images acquired between 30 and 60 minutes post-administration, and Phase III refers to MRA images acquired between 110 and 130 minutes post-administration. In Comparison 1, no quantitative or qualitative differences were observed between NEMO-103-based MRA images acquired during Phase I and Phase II (FIG. 27). […] In Comparison 3, which compared NEMO-103-based MRA images from Phase II with GBCA-based MRA images, more prominent differences were observed (FIG. 29).
Amid growing safety concerns surrounding gadolinium-based contrast agents (GBCAs), iron (Fe)-based alternatives have emerged as a subject of active investigation. The present example evaluates the efficacy of NEMO-103 in comparison with a GBCA by assessing contrast-to-noise ratio (CNR) and MR arthrography (MRA) image quality. […] Both contrast agents effectively delineated key anatomical structures, including tissue contrast, sharpness, rotator cuff tendons, labral structures, and adjacent cartilage. […]

Compound: COc1cccc2c1C(=O)c1c(O)c3c(c(O)c1C2=O)C[C@@](O)(C(=O)CO)C[C@@H]3O[C@H]1C[C@H](N)[C@H](O)[C@H](C)O1 [Doxorubicin]
- tumor growth rate [1]: reduction in tumor growth rate
- tumor size [1]: no significant decrease in tumor size

Compound: CC[C@@]1(O)C(=O)OCc2c1cc1n(c2=O)Cc2c-1nc1cc(F)c(C)c3c1c2[C@@H](N)CC3 [DXd, exatecan]
- activity in cancer cells compared to SN-38 (cancer cells): approximately 10 fold

Compound: CNC[C@H](O)[C@@H](O)[C@H](O)[C@H](O)CO.O=C([O-])CN1CCN(CC(=O)[O-])CCN(CC(=O)O)CCN(CC(=O)[O-])CC1.[Gd+3] [Dotarem]
- hydrodynamic size [2]: < 1 nm
- r1 relaxivity [3]: 4.7 mM⁻¹ s⁻¹
- incidence of axillary pouch obliteration compared to NEMO-103 [4]: relatively higher incidence
